The pIC50 is the negative decadic logarithm of the IC50, by convention in mol/L.

This passage reports IC50 results from patent US11446287B2, “Compounds and methods for EP300 or CBP modulation and indications therefor” (Opna Immuno-Oncology SA, priority 2019, dated 2022).

Structures are written as SMILES. pIC50: −log10 of the molar value.

This assay has as its target T1, Recombinant human EP300 containing the bromodomain (EP300-BD (1040-1161)) (Homo sapiens, UniProt Q09472).
T1 construct: Recombinant human EP300 bromodomain (EP300-BD (1040-1161)); made in house; host or cells: E. coli BL21-CodonPlus (DE3), modified pET vector
T1 sequence (Q09472 1040-1161): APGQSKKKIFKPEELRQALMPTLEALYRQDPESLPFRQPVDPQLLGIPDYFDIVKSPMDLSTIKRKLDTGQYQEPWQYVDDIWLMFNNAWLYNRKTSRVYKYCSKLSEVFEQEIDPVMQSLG
Briefly: EP300 Alphascreen binding assay. In outline: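 Displacement of a biotinylated acetyl-K56 histone H3 peptide from the N-His bromodomain construct (1040-1161) measured by AlphaScreen proximity, beads at 7.5 μg/ml final, read 60 min after addition. Protein, peptide and compound first incubated 1 h at room temperature, pH 7.5 HEPES buffer; IC50 by four-parameter logistic fit.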

For the compound `Cc1noc(C)c1-c1cnc2c(c1)c(-c1ccc(C(=O)O)cc1OC(F)(F)F)cn2C1CCN(S(C)(=O)=O)CC1` [P-0292, 4-(5-(3,5-dimethylisoxazol-4-yl)-1-(1-(methylsulfonyl)piperidin-4-yl)-1H-pyrrolo[2,3-b]pyridin-3-yl)-3-(trifluoromethoxy)benzoic acid], the pIC50 was 6.00 to 10.00. The value for `Cc1noc(C)c1-c1cnc2c(c1)c(-c1ccc(C(=O)O)cc1OC(F)(F)F)cn2-c1ccncc1F` [P-0293, 4-(5-(3,5-dimethylisoxazol-4-yl)-1-(3-fluoropyridin-4-yl)-1H-pyrrolo[2,3-b]pyridin-3-yl)-3-(trifluoromethoxy)benzoic acid] was 6.00 to 10.00.

In the case of `Cc1noc(C)c1-c1cnc2c(c1)c(-c1ccc(C(=O)O)cc1OC(F)(F)F)cn2-c1cnn(CC(C)(C)O)c1` [P-0294, 4-(5-(3,5-dimethylisoxazol-4-yl)-1-(1-(2-hydroxy-2-methylpropyl)-1H-pyrazol-4-yl)-1H-pyrrolo[2,3-b]pyridin-3-yl)-3-(trifluoromethoxy)benzoic acid], the pIC50 was 6.00 to 10.00. On to `CCOc1cc(C(=O)O)ncc1-c1cn(-c2ccc(F)cc2F)c2ncc(-c3c(C)noc3C)cc12` [P-0295, 5-(1-(2,4-difluorophenyl)-5-(3,5-dimethylisoxazol-4-yl)-1H-pyrrolo[2,3-b]pyridin-3-yl)-4-ethoxypicolinic acid], for which the pIC50 was 6.00 to 10.00.

For the compound `CCOc1c(F)c(C(=O)O)c(F)c(OCC)c1-c1cn(-c2ccc(F)cc2F)c2ncc(-c3c(C)noc3C)cc12` [P-0296, 4-(1-(2,4-difluorophenyl)-5-(3,5-dimethylisoxazol-4-yl)-1H-pyrrolo[2,3-b]pyridin-3-yl)-3,5-diethoxy-2,6-difluorobenzoic acid], the pIC50 is 6.00 to 10.00. `CCOc1cc(C(=O)O)c(F)c(OCC)c1-c1cn(-c2ccc(F)cc2F)c2ncc(-c3c(C)noc3C)cc12` [P-0297, 4-(1-(2,4-difluorophenyl)-5-(3,5-dimethylisoxazol-4-yl)-1H-pyrrolo[2,3-b]pyridin-3-yl)-3,5-diethoxy-2-fluorobenzoic acid]: the pIC50 is 6.00 to 10.00. Turning to `Cc1noc(C)c1-c1cnc2c(-c3ccccc3)cn(-c3c(OCC(F)(F)F)cc(C(=O)O)cc3OCC(F)(F)F)c2c1` [P-0298, 4-(6-(3,5-dimethylisoxazol-4-yl)-3-phenyl-1H-pyrrolo[3,2-b]pyridin-1-yl)-3,5-bis(2,2,2-trifluoroethoxy)benzoic acid], the pIC50 was 6.00 to 10.00. On to `Cc1noc(C)c1-c1cnc2c(c1)c(-c1ccc(C(=O)O)cc1OC(C)C)cn2-c1cnn(CC(C)(C)O)c1` [P-0299, 4-(5-(3,5-dimethylisoxazol-4-yl)-1-(1-(2-hydroxy-2-methylpropyl)-1H-pyrazol-4-yl)-1H-pyrrolo[2,3-b]pyridin-3-yl)-3-isopropoxybenzoic acid], for which the pIC50 is 6.00 to 10.00.

For the compound `Cc1noc(C)c1-c1cnc2c(c1)c(-c1ccc(C(=O)O)cc1OC(C)C)cn2-c1cnc(N2CCC2)nc1` [P-0300, 4-(1-(2-(azetidin-1-yl)pyrimidin-5-yl)-5-(3,5-dimethylisoxazol-4-yl)-1H-pyrrolo[2,3-b]pyridin-3-yl)-3-isopropoxybenzoic acid], the negative-log IC50 (pIC50) was 6.00 to 10.00. The value for `Cc1noc(C)c1-c1cnc2c(c1)c(-c1ccc(C(=O)O)cc1OC(C)C)cn2[C@H]1CCOC1` [P-0301, (S)-4-(5-(3,5-dimethylisoxazol-4-yl)-1-(tetrahydrofuran-3-yl)-1H-pyrrolo[2,3-b]pyridin-3-yl)-3-isopropoxybenzoic acid] was 6.00 to 10.00; that for `Cc1noc(C)c1-c1cnc2c(c1)c(-c1ccc(S(C)(=O)=O)cc1OC(C)C)cn2-c1ccccc1` [P-0302, 4-(3-(2-isopropoxy-4-(methylsulfonyl)phenyl)-1-phenyl-1H-pyrrolo[2,3-b]pyridin-5-yl)-3,5-dimethylisoxazole] was 6.00 to 10.00; that for `CCCn1nc(C(=O)O)c(N)c1-c1cn(-c2ccc(F)cc2F)c2ncc(-c3c(C)noc3C)cc12` [P-0303, 4-amino-5-(1-(2,4-difluorophenyl)-5-(3,5-dimethylisoxazol-4-yl)-1H-pyrrolo[2,3-b]pyridin-3-yl)-1-propyl-1H-pyrazole-3-carboxylic acid] was 6.00 to 10.00. The result for `CCCn1nc(C(=O)O)c(NCC)c1-c1cn(-c2ccc(F)cc2F)c2ncc(-c3c(C)noc3C)cc12` [P-0304, 5-(1-(2,4-difluorophenyl)-5-(3,5-dimethylisoxazol-4-yl)-1H-pyrrolo[2,3-b]pyridin-3-yl)-4-(ethylamino)-1-propyl-1H-pyrazole-3-carboxylic acid] reads 6.00 to 10.00; that for `Cc1nnn(C)c1-c1cnc2c(c1)c(-c1ccc(C(=O)O)cc1OC(F)(F)F)cn2CC/C=C/C1CC1` [P-0305, (E)-4-(1-(4-cyclopropylbut-3-en-1-yl)-5-(1,4-dimethyl-1H-1,2,3-triazol-5-yl)-1H-pyrrolo[2,3-b]pyridin-3-yl)-3-(trifluoromethoxy)benzoic acid], 6.00 to 10.00; that for `Cc1noc(C)c1-c1cnc2c(c1)c(-c1ccc(C(=O)O)cc1OCC(F)F)cn2-c1ccncc1Cl` [P-0306, 4-(1-(3-chloropyridin-4-yl)-5-(3,5-dimethylisoxazol-4-yl)-1H-pyrrolo[2,3-b]pyridin-3-yl)-3-(2,2-difluoroethoxy)benzoic acid], 6.00 to 10.00. The value for `Cc1noc(C)c1-c1cnc2c(c1)c(-c1ccc(C(=O)O)cc1OC(F)(F)F)cn2-c1ccccc1Cl` [P-0307, 4-(1-(2-chlorophenyl)-5-(3,5-dimethylisoxazol-4-yl)-1H-pyrrolo[2,3-b]pyridin-3-yl)-3-(trifluoromethoxy)benzoic acid] was 6.00 to 10.00; that for `Cc1noc(C)c1-c1cnc2c(c1)c(-c1ccc(C(=O)O)cc1OC(F)(F)F)cn2-c1ccccc1C1CC1` [P-0308, 4-(1-(2-cyclopropylphenyl)-5-(3,5-dimethylisoxazol-4-yl)-1H-pyrrolo[2,3-b]pyridin-3-yl)-3-(trifluoromethoxy)benzoic acid] was 6.00 to 10.00; that for `Cc1noc(C)c1-c1cnc2c(c1)c(-c1ccc(C(=O)O)cc1OC(F)(F)F)cn2-c1ccccc1C#N` [P-0309, 4-(1-(2-cyanophenyl)-5-(3,5-dimethylisoxazol-4-yl)-1H-pyrrolo[2,3-b]pyridin-3-yl)-3-(trifluoromethoxy)benzoic acid] was 6.00 to 10.00. As for `Cc1cc(C#N)ccc1-n1cc(-c2ccc(C(=O)O)cc2OC(F)(F)F)c2cc(-c3c(C)noc3C)cnc21` [P-0310, 4-(1-(4-cyano-2-methylphenyl)-5-(3,5-dimethylisoxazol-4-yl)-1H-pyrrolo[2,3-b]pyridin-3-yl)-3-(trifluoromethoxy)benzoic acid], the pIC50 was 6.00 to 10.00.

Take `COc1ccc(-n2cc(-c3ccc(C(=O)O)cc3OC(F)(F)F)c3cc(-c4c(C)noc4C)cnc32)c(F)c1` [P-0311, 4-(5-(3,5-dimethylisoxazol-4-yl)-1-(2-fluoro-4-methoxyphenyl)-1H-pyrrolo[2,3-b]pyridin-3-yl)-3-(trifluoromethoxy)benzoic acid]: the pIC50 was 6.00 to 10.00. In the case of `C=C(C)c1ccccc1-n1cc(-c2ccc(C(=O)O)cc2OC(F)(F)F)c2cc(-c3c(C)noc3C)cnc21` [P-0312, 4-(5-(3,5-dimethylisoxazol-4-yl)-1-(2-(prop-1-en-2-yl)phenyl)-1H-pyrrolo[2,3-b]pyridin-3-yl)-3-(trifluoromethoxy)benzoic acid], the pIC50 was 6.00 to 10.00. The result for `Cc1noc(C)c1-c1cnc2c(c1)c(-c1ccc(C(=O)O)cc1OC(F)(F)F)cn2-c1ccc(C#N)cc1` [P-0313, 4-(1-(4-cyanophenyl)-5-(3,5-dimethylisoxazol-4-yl)-1H-pyrrolo[2,3-b]pyridin-3-yl)-3-(trifluoromethoxy)benzoic acid] reads 6.00 to 10.00. The value for `Cc1noc(C)c1-c1cnc2c(c1)c(-c1ccc(C(=O)O)cc1OC(F)(F)F)cn2-c1ccc(C(C)(C)O)cc1` [P-0314, 4-(5-(3,5-dimethylisoxazol-4-yl)-1-(4-(2-hydroxypropan-2-yl)phenyl)-1H-pyrrolo[2,3-b]pyridin-3-yl)-3-(trifluoromethoxy)benzoic acid] was 6.00 to 10.00; that for `Cc1noc(C)c1-c1cnc2c(c1)c(-c1ccc(C(=O)O)cc1OC(F)(F)F)cn2-c1ccsc1` [P-0315, 4-(5-(3,5-dimethylisoxazol-4-yl)-1-(thiophen-3-yl)-1H-pyrrolo[2,3-b]pyridin-3-yl)-3-(trifluoromethoxy)benzoic acid] was 6.00 to 10.00.
